Values quoted from earlier work, collected in patent publication US10359349B2, “Use of focused light scattering techniques in biological applications” (AIDIA INVESTMENT GROUP, INC., priority 2008, dated 2019).

System: platelets
Conditions: platelet inhibition in arterial thrombophilic diseases; share of drug-treated patients whose platelets are not inhibited

| Compound | treated patients who do not respond to treatment |
| --- | --- |
| COC(=O)[C@H](c1ccccc1Cl)N1CCc2sccc2C1 [Plavix, clopidogrel bisulfate] | ~29% |
| CC(=O)Oc1ccccc1C(=O)O [ASA, Aspirin] | Approximately 25% |
